Values of other authors in PMC3791449, “Mechanism of amyloid β−protein dimerization determined using single−molecule AFM force spectroscopy” (Scientific Reports, 2013).

Test system: Aβ(13−23) dimer
Conditions: antiparallel β−sheet structures; cited from earlier work

Aβ(13−23): Aβ(13−23) peptide of published MD simulations (HHQKLVFFAED; Amyloid-beta protein 42; UniProt P05067 684-694, looked up, fragment)
dimer stability by MD simulation: high dimer stability
